Reference: ChEMBL document CHEMBL5705893, “Targeting the mitotic checkpoint for cancer therapy with NMS-P715, an inhibitor of MPS1 kinase” (Cancer Res, 2010)
Active and inactive are the calls of the source. No cut-off for these calls is given here.

Legend:
SK-MEL-28 = assay: Antiproliferative activity against human SK-MEL-28 cells assessed as inhibition of cell growth incubated for 72 hrs by celltiter-glo assay; type: functional, cell-based; details: SK-MEL-28, 72 h
BJ [1] = assay: Antiproliferative activity against human BJ cells assessed as inhibition of cell growth incubated for 72 hrs by celltiter-glo assay; type: functional, cell-based
[2] = biological target: Tyrosine-protein kinase JAK3 (Homo sapiens, UniProt P52333); assay: Inhibition of recombinant JAK3 (unknown origin)
NCI-H526 = assay: Antiproliferative activity against human NCI-H526 cells assessed as inhibition of cell growth incubated for 72 hrs by celltiter-glo assay; type: functional, cell-based; details: NCI-H526, 72 h
SF-295 = assay: Antiproliferative activity against human SF-295 cells assessed as inhibition of cell growth incubated for 72 hrs by celltiter-glo assay; type: functional, cell-based; details: SF-295, 72 h
786-0 = assay: Antiproliferative activity against human 786-0 cells assessed as inhibition of cell growth incubated for 72 hrs by celltiter-glo assay; type: functional, cell-based; details: 786-0, 72 h
Granta-519 = assay: Antiproliferative activity against human Granta-519 cells assessed as inhibition of cell growth incubated for 72 hrs by celltiter-glo assay; type: functional, cell-based; details: Granta-519, 72 h
RPMI-8226 = assay: Antiproliferative activity against human RPMI-8226 cells assessed as inhibition of cell growth incubated for 72 hrs by celltiter-glo assay; type: functional, cell-based; details: RPMI-8226, 72 h
[3] = Inhibition of recombinant CDK2/CYCA (unknown origin); set-up: species or system Homo sapiens
[4] = Cmax in Athymic nu-nu mouse at 100 mg/kg, po measured upto 24 hrs by LC-MS/MS analysis; type: ADME, organism-based; details: in vivo
U2OS [5] = assay: Induction of mitotic arrest in human U2OS cells expressing YFP-alpha-tubulin assessed as effect on bipolar spindle formation at 1 micromol/L by time-lapse microscopic analysis; type: functional, cell-based; details: dose 1.0 µmol/L
[6] = Antiproliferative activity against human RPMI 8226/ADR cells assessed as inhibition of cell growth incubated for 72 hrs by celltiter-glo assay; type: functional, cell-based
HL-60 = assay: Antiproliferative activity against human HL-60 cells assessed as inhibition of cell growth incubated for 72 hrs by celltiter-glo assay; type: functional, cell-based; details: HL-60, 72 h
SKM-1 = assay: Antiproliferative activity against human SKM-1 cells assessed as inhibition of cell growth incubated for 72 hrs by celltiter-glo assay; type: functional, cell-based; details: SKM-1, 72 h
BXPC-3 = assay: Antiproliferative activity against human BXPC-3 cells assessed as inhibition of cell growth incubated for 72 hrs by celltiter-glo assay; type: functional, cell-based; details: BXPC-3, 72 h
U2OS [7] = assay: Induction of mitotic arrest in human U2OS cells expressing YFP alpha-tubulin assessed as chromosome misalignment in metaphase incubated for 1 hr by DAPI staining based confocal microscopic analysis; type: functional, cell-based
A2780 = assay: Induction of apoptosis in human A2780 cells assessed as effect on histone H2AX phosphorylation 0.2 to 1 micromol/L incubated for 2 to 72 hrs by Western blot analysis; type: functional, cell-based; details: dose 0.2-1 µmol/L, time 2-72 hrs
HeLa [8] = assay: Induction of mitotic arrest in human nocodazole-arrested HeLa cells assessed as delocalization of MAD1 in presence of MG132; type: functional, cell-based
Casein kinase 2 = Casein kinase 2 (Homo sapiens, UniProt P67870+P68400+P19784+Q8NEV1); assay: Inhibition of recombinant CK2 (unknown origin); type: protein assay
NCI-H460 = assay: Antiproliferative activity against human NCI-H460 cells assessed as inhibition of cell growth incubated for 72 hrs by celltiter-glo assay; type: functional, cell-based; details: NCI-H460, 72 h
SW480 = assay: Antiproliferative activity against human SW480 cells assessed as inhibition of cell growth incubated for 72 hrs by celltiter-glo assay; type: functional, cell-based; details: SW480, 72 h
U-266 = assay: Antiproliferative activity against human U-266 cells assessed as inhibition of cell growth incubated for 72 hrs by celltiter-glo assay; type: functional, cell-based; details: U-266, 72 h
L-363 = assay: Antiproliferative activity against human L-363 cells assessed as inhibition of cell growth incubated for 72 hrs by celltiter-glo assay; type: functional, cell-based; details: L-363, 72 h
NCI-H2126 = assay: Antiproliferative activity against human NCI-H2126 cells assessed as inhibition of cell growth incubated for 72 hrs by celltiter-glo assay; type: functional, cell-based; details: NCI-H2126, 72 h
SF-539 = assay: Antiproliferative activity against human SF-539 cells assessed as inhibition of cell growth incubated for 72 hrs by celltiter-glo assay; type: functional, cell-based; details: SF-539, 72 h
NCI/ADR-RES = assay: Antiproliferative activity against human NCI-ADR-RES cells assessed as inhibition of cell growth incubated for 72 hrs by celltiter-glo assay; type: functional, cell-based
[9] = biological target: Mast/stem cell growth factor receptor Kit (Homo sapiens, UniProt P10721); assay: Inhibition of recombinant KIT (unknown origin)
HeLa [10] = assay: Effect on BUBR1 level in human nocodazole-arrested HeLa cells at 1 micromol/L in presence of MG132; type: functional, cell-based; details: dose 1.0 µmol/L
TK-10 = assay: Antiproliferative activity against human TK-10 cells assessed as inhibition of cell growth incubated for 72 hrs by celltiter-glo assay; type: functional, cell-based; details: TK-10, 72 h
[11] = biological target: Serine/threonine-protein kinase NIM1 (Homo sapiens, UniProt Q8IY84); assay: Inhibition of recombinant NIM1 (unknown origin)
COLO-741 = assay: Antiproliferative activity against human COLO-741 cells assessed as inhibition of cell growth incubated for 72 hrs by celltiter-glo assay; type: functional, cell-based; details: COLO-741, 72 h
PC-3 = assay: Antiproliferative activity against human PC-3 cells assessed as inhibition of cell growth incubated for 72 hrs by celltiter-glo assay; type: functional, cell-based; details: PC-3, 72 h
OVCAR-8 = assay: Antiproliferative activity against human OVCAR-8 cells assessed as inhibition of cell growth incubated for 72 hrs by celltiter-glo assay; type: functional, cell-based; details: OVCAR-8, 72 h
T84 = assay: Antiproliferative activity against human T84 cells assessed as inhibition of cell growth incubated for 72 hrs by celltiter-glo assay; type: functional, cell-based; details: T84, 72 h
NHDF = assay: Antiproliferative activity against human NHDF cells assessed as inhibition of cell growth incubated for 72 hrs by celltiter-glo assay; type: functional, cell-based
[12] = biological target: Tyrosine-protein kinase SYK (Homo sapiens, UniProt P43405)
Description: Inhibition of recombinant SYK (unknown origin)

BJ [13] = assay: Inhibition of colony formation in human BJ cells assessed as decrease in colony number at 0.5 to 3 uM incubated for 72 hrs followed by compound washout and measured after 18 days by crystal violet staining based assay; type: functional, cell-based; details: dose 0.5-3 µM
CAPAN-1 = assay: Antiproliferative activity against human CAPAN-1 cells assessed as inhibition of cell growth incubated for 72 hrs by celltiter-glo assay; type: functional, cell-based; details: CAPAN-1, 72 h
HOP-62 = assay: Antiproliferative activity against human HOP-62 cells assessed as inhibition of cell growth incubated for 72 hrs by celltiter-glo assay; type: functional, cell-based; details: HOP-62, 72 h
C-33-A = assay: Antiproliferative activity against human C-33-A cells assessed as inhibition of cell growth incubated for 72 hrs by celltiter-glo assay; type: functional, cell-based
COLO-678 = assay: Antiproliferative activity against human COLO-678 cells assessed as inhibition of cell growth incubated for 72 hrs by celltiter-glo assay; type: functional, cell-based; details: COLO-678, 72 h

Sequence of Serine/threonine-protein kinase NIM1 (Q8IY84 whole entry): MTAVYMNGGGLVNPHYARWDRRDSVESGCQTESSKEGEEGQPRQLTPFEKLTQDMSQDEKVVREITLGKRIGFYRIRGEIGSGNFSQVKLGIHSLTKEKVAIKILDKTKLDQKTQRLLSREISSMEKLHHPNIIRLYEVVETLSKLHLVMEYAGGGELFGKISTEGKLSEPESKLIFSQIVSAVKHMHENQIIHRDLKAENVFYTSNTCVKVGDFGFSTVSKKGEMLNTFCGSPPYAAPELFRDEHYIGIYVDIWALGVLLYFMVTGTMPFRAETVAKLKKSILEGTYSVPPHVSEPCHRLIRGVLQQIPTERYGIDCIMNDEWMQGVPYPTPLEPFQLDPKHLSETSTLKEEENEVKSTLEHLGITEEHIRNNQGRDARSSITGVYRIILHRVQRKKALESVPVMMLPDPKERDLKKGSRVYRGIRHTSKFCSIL
Sequence of Mast/stem cell growth factor receptor Kit (P10721 whole entry): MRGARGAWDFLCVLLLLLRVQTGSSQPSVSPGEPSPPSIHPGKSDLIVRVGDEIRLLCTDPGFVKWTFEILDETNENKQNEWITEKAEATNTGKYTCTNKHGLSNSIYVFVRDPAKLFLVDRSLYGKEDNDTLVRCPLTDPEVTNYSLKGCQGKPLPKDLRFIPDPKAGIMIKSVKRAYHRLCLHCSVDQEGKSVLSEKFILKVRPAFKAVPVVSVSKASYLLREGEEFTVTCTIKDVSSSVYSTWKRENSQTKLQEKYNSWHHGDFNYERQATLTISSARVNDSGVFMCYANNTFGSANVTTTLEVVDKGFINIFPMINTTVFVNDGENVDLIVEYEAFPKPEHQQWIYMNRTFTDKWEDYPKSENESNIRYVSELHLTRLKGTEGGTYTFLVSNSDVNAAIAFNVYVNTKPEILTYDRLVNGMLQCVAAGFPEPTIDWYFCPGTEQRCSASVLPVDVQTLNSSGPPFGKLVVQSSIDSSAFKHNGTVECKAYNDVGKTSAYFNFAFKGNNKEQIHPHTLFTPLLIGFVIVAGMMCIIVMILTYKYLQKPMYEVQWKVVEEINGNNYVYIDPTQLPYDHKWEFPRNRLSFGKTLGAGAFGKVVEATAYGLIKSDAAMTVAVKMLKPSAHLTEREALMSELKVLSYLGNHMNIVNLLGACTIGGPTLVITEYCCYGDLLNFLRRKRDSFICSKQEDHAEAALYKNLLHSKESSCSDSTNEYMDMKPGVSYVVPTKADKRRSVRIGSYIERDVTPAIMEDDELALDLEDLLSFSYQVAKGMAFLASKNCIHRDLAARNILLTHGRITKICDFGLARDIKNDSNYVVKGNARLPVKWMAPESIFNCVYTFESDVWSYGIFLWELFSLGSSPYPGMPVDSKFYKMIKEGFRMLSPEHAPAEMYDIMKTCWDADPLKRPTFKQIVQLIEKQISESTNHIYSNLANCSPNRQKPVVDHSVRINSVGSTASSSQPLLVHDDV
Sequence of Tyrosine-protein kinase JAK3 (P52333 whole entry): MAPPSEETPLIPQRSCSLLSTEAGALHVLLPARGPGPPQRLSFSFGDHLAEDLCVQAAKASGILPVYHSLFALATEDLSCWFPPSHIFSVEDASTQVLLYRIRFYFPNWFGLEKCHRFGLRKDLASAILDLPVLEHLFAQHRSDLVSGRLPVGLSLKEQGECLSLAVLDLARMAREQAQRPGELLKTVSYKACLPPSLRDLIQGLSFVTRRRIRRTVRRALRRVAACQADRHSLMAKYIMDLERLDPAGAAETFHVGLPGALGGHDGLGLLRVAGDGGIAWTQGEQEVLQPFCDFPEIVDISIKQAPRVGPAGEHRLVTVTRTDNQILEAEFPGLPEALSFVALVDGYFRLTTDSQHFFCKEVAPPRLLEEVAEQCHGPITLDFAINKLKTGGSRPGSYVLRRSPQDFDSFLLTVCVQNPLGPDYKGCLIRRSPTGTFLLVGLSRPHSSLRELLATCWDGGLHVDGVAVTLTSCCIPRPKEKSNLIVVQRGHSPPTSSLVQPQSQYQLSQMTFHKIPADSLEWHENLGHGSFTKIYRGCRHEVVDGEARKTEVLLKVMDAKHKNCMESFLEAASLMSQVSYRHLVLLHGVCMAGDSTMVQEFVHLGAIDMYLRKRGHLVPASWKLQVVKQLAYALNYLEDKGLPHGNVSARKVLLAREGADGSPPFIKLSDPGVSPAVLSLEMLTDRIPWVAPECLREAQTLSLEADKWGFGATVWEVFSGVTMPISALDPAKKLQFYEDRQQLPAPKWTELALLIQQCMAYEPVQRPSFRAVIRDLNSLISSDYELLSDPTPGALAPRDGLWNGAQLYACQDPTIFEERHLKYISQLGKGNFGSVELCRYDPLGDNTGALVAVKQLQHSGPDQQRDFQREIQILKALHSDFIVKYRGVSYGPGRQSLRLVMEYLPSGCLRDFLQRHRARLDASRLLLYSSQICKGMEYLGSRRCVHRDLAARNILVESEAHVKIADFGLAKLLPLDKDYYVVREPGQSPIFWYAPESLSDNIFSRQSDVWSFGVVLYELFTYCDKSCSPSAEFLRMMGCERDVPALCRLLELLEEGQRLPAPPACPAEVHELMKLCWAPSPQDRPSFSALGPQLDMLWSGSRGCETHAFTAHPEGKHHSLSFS

- IC50 (SK-MEL-28): 2590 nM
- IC50 [2]: > 10000 nM
- IC50 (NCI-H526): 2200 nM
- IC50 (786-0): 917 nM
- IC50 (RPMI-8226): 1480 nM
- IC50 [3]: > 10000 nM
- Cmax [4]: 1790 nM
- IC50 (HL-60): 1580 nM
- IC50 (SKM-1): 10000 nM
- IC50 (BXPC-3): 2180 nM
- IC50 (Casein kinase 2): 5700 nM
- IC50 (NCI-H460): 2190 nM
- IC50 (SW480): 1300 nM
- IC50 (NCI-H2126): 4630 nM
- IC50 [9]: > 10000 nM
- IC50 [11]: > 10000 nM
- IC50 (COLO-741): 10000 nM
- IC50 (PC-3): 1990 nM
- IC50 (OVCAR-8): 1210 nM
- IC50 [12]: > 10000 nM
- IC50 (COLO-678): 10000 nM
Structure (SMILES): CCc1cccc(CC)c1NC(=O)c1nn(C)c2c1CCc1cnc(Nc3ccc(C(=O)NC4CCN(C)CC4)cc3OC(F)(F)F)nc1-2
- IC50 (BJ [1]): 5470 nM
- IC50 (SF-295): 2880 nM
- IC50 (Granta-519): 1690 nM
- Activity (U2OS [5]): Active
- IC50 [6]: 1490 nM
- Activity (U2OS [7]): Active
- Activity (A2780): Active
- Activity (HeLa [8]): Active
- IC50 (U-266): 5930 nM
- IC50 (L-363): 1610 nM
- IC50 (SF-539): 807 nM
- IC50 (NCI/ADR-RES): 2480 nM
- Activity (HeLa [10]): Active
- IC50 (TK-10): 1540 nM
- IC50 (T84): 10000 nM
- IC50 (NHDF): 10000 nM
- Activity (BJ [13]): Active
- IC50 (CAPAN-1): 5220 nM
- IC50 (HOP-62): 7770 nM
- IC50 (C-33-A): 3010 nM
